Results as given in article PMC3925368 (Bioorganic & medicinal chemistry letters, 2013).

Assays:
[1] = tested on: T. brucei rhodesiense STIB900; format: cell-based, Trypanosoma brucei rhodesiense; details: STIB900 strain, in vitro
[2] = tested on: T. brucei rhodesiense; format: in vivo; details: for In vivo toxicity: 4×50 mg/kg ip in infected mice; for Cures: cure = survival for more than 60 days after infection without a parasitemia relapse, cured/treated mice
[3] = tested on: T. brucei brucei; details: ip doses as low as 3 × 1 mg/kg; cure = survival more than 30 days beyond controls; cited from earlier work
[4] = at micromolar concentrations; cited from earlier work
[5] = 4×50 mg/kg ip on days 3–6 post-infection

Compound	In vivo toxicity [2]	Cures [2, 5]	other results
O=C(Nc1ccc(C2=NCCN2)cc1)c1ccc(-c2cc3ccc(C4=NCCN4)cc3[nH]2)cc1 [Compound 11, 6-(4,5-Dihydro-1H-imidazol-2-yl)-2-[4-[[[4-(4,5-dihydro-1H-imidazol-2-yl)phenyl]amino]carbonyl]phenyl]indole]	–	–	T. b. rhodesiense IC50 [1]: single digit nM
CS(=O)(=O)O.O=C(Nc1ccc(C2=NCCN2)cc1)c1ccc(NC(=O)c2ccc(C3=NCCN3)cc2)cc1 [Compound 5, N-[4-(4,5-Dihydro-1H-imidazol-2-yl)phenyl]-4-[[4-(4,5-dihydro-1H-imidazol-2-yl)benzoyl]amino]benzamide dimesylate]	no in vivo toxicity	–	–
CS(=O)(=O)O.O=C(Nc1ccc(C2=NCCN2)cc1)c1ccc(-c2ccc(C(=O)Nc3ccc(C4=NCCN4)cc3)cc2)cc1 [Compound 8, N,N'-Bis[4-(4,5-dihydro-1H-imidazol-2-yl)phenyl]biphenyl-4,4’-dicarboxamide dimesylate]	–	ineffective	–
CS(=O)(=O)O.O=C(Nc1ccc(C2=NCCN2)cc1)c1ccc(C2=NCCN2)cc1 [Compound 10, N-[4-(4,5-Dihydro-1H-imidazol-2-yl)phenyl]-4-(4,5-dihydro-1H-imidazol-2-yl)benzamide dimesylate]	no in vivo toxicity	–	–
CS(=O)(=O)O.O=C(Nc1ccc(C2=NCCN2)cc1)c1cccc(C(=O)Nc2ccc(C3=NCCN3)cc2)c1 [Compound 2, N,N'-Bis[4-(4,5-dihydro-1H-imidazol-2-yl)phenyl]isophthalamide dimesylate]	–	completely curative	–
CS(=O)(=O)O.O=C(Nc1ccc(C2=NCCN2)cc1)c1ccc(C(=O)Nc2ccc(C3=NCCN3)cc2)cc1 [Compound 1, N,N'-Bis[4-(4,5-dihydro-1H-imidazol-2-yl)phenyl]terephthalamide dimesylate]	–	–	Cure of T. brucei brucei-infected mice [3]: completely cured; Mutagenicity [4]: mutagenic
CS(=O)(=O)O.O=C(NCc1ccc(C2=NCCN2)cc1)c1ccc(-c2cc3ccc(C4=NCCN4)cc3[nH]2)cc1 [Compound 12, 6-(4,5-Dihydro-1H-imidazol-2-yl)-2-[4-[[[[4-(4,5-dihydro-1H-imidazol-2-yl)phenyl]methyl]amino]carbonyl]phenyl]indole dimesylate]	lethal	ineffective	T. b. rhodesiense IC50 [1]: single digit nM; Mean Survival Days ([2]; 4×50 mg/kg ip on days 3–6 post-infection, mice with and without parasitemia relapse): toxic ^d
